Publication PMC9080521, “Molecular basis of rutin inhibition of protein disulfide isomerase (PDI) by combined in silico and experimental methods” (RSC Advances, 2018)
Converted amounts (≈) assume the structure as drawn.

Assays:
thioredoxin = system: thioredoxin; parameters: method as in PMID 22565308; details: cited from earlier work
wt MBP-PDI-b′xa′ = target: T1, wt MBP-PDI-b′xa′ (Homo sapiens, UniProt P07237); test: Insulin reduction assay; format: biochemical
T1 construct: MBP-PDI-b′xa′(235–479); His-tag; made in house; host or cells: E. coli BL21 (DE3)
T1 sequence (P07237 235-479): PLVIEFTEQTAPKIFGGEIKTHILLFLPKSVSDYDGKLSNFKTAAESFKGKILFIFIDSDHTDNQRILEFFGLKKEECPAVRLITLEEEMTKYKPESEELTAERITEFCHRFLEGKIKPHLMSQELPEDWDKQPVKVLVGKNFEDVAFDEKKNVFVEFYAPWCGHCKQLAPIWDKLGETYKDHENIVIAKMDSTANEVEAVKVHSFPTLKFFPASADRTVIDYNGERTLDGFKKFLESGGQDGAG
Method: (§1) The insulin reduction assay was performed to assess the enzymatic activity of PDI and its MBP-fused recombinant proteins. PDI can reduce insulin in the presence of dithiothreitol (DTT) along with increase in turbidity of the reaction mixture. We thus monitored spectrophotometrically the aggregation of reduced insulin through the increase of turbidity. The reductase activity was measured in 100 μL in presence of 600 μM insulin, 1.5 μM PDI and recombinant PDI proteins, 1 mM DTT, and with protein buffer (pH 7.4), at room temperature over 100 min by absorption at 650 nm. For inhibition assay, 100 μM of rutin, kaempferitrin, tiliroside and 2′-O-galloylhyperin or control buffer was added to the reaction system.
(§2) We further used the insulin reduction assay to measure the reductase activities of these site-directed MBP-PDI-b′xa′ mutants. This assay has typically good reproducibility as shown by a control experiment with three repetitions (Fig. S7 ^†). We found the PDI mutants maintained reductase activities in the presence of dithiothreitol (DTT). The H354A mutation lowered the reductase activity of wt MBP-PDI-b′xa′ (Fig. 3G) while other mutants had similar reductase activities with that of wt MBP-PDI-b′xa′ (Fig. 3C, F and H–J). Addition of rutin inhibited the reductase activities of both wt MBP-PDI-b′xa′ and the mutants (Fig. 3C and F–J). […] We quantified the inhibition of rutin on these MBP-PDI-b′xa′ mutants by measuring the increase of turbidity (OD650 at 100 min) upon addition of rutin (Fig. 3K).

MBP-PDI-b′xa′ K328E = target: T2, MBP-PDI-b′xa′ K328E (Homo sapiens, UniProt P07237, K328E); test: Insulin reduction assay; format: biochemical; details: rutin 100 μM
T2 construct: MBP-PDI-b′xa′(235–479); His-tag; made in house; host or cells: E. coli BL21 (DE3)
T2 sequence (P07237 235-479 K328E): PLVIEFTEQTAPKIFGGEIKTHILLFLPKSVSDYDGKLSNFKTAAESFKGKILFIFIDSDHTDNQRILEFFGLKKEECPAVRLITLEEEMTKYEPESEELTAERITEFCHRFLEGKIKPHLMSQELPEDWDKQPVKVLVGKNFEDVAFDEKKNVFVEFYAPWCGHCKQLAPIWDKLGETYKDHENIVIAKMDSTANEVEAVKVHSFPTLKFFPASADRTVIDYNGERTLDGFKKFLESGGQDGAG
Method: as §1, §2

MBP-PDI-b′xa′ E359K = target: T3, MBP-PDI-b′xa′ E359K (Homo sapiens, UniProt P07237, E359K); test: Insulin reduction assay; format: biochemical; details: rutin 100 μM
T3 construct: MBP-PDI-b′xa′(235–479); His-tag; made in house; host or cells: E. coli BL21 (DE3)
T3 sequence (P07237 235-479 E359K): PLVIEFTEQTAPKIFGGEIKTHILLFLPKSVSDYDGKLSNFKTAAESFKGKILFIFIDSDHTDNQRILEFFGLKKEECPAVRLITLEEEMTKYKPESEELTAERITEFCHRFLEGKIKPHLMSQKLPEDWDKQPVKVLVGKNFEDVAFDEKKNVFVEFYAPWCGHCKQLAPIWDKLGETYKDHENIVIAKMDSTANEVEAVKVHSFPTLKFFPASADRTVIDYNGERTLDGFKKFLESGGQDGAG
Method: as §1, §2

MBP-PDI-b′xa′ E359A = target: T4, MBP-PDI-b′xa′ E359A (Homo sapiens, UniProt P07237, E359A); test: Insulin reduction assay; format: biochemical; details: rutin 100 μM
T4 construct: MBP-PDI-b′xa′(235–479); His-tag; made in house; host or cells: E. coli BL21 (DE3)
T4 sequence (P07237 235-479 E359A): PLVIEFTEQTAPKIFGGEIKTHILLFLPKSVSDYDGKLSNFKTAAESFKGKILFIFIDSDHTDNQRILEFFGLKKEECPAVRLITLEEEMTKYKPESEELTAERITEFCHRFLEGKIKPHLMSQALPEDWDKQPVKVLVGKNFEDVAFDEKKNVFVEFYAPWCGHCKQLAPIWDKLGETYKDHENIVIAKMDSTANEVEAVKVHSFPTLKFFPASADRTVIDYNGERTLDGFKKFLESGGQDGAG
Method: as §1, §2

MBP-PDI-b′xa′ H354A = target: T5, MBP-PDI-b′xa′ H354A (Homo sapiens, UniProt P07237, H354A); test: Insulin reduction assay; format: biochemical; details: rutin 100 μM
T5 construct: MBP-PDI-b′xa′(235–479); His-tag; made in house; host or cells: E. coli BL21 (DE3)
T5 sequence (P07237 235-479 H354A): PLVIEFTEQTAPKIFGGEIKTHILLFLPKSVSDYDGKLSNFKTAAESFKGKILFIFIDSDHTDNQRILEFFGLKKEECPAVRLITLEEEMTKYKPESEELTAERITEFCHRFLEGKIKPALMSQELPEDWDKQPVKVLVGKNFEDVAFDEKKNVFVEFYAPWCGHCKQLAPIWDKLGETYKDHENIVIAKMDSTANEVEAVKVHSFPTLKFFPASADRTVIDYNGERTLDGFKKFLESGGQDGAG
Method: as §1, §2

MBP-PDI-b′xa′ L355R = target: T6, MBP-PDI-b′xa′ L355R (Homo sapiens, UniProt P07237, L355R); test: Insulin reduction assay; format: biochemical; details: rutin 100 μM
T6 construct: MBP-PDI-b′xa′(235–479); His-tag; made in house; host or cells: E. coli BL21 (DE3)
T6 sequence (P07237 235-479 L355R): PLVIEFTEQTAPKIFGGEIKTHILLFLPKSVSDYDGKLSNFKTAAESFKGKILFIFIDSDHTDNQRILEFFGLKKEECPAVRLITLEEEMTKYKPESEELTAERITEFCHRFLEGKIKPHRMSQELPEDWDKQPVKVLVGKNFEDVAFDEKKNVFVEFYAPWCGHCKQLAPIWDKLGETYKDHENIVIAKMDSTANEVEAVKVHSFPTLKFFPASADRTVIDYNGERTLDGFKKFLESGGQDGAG
Method: as §1, §2

[1] = system: MBP (MBP-PNGase, MBP-SpoIVB, MBP-MOC1); test: Fluorescence measurement with MBP-fusion control proteins; format: binding; details: rutin 55 μM, MBP-fusion proteins 18 μM, excitation 430 nm
Method: The relevant recombinant proteins were incubated with rutin in black 384-well plate at room temperature for 30 min before measurements. The concentrations of proteins were always kept at 18 μM and rutin was 55 μM. The total assay volume was filled to 100 μL using the protein buffer (pH 7.4). The fluorescence emission spectrum of every mixture were measured with the excitation at 430 nm and the emission at 460 nm at room temperature on a BioTek Synergy microplate reader with a sensitivity of 100 or 120 and measurements of per data with 100 times. […]
presence of three different MBP-fusion proteins. The MBP-fusion proteins (MBP-PNGase protein (gray dash-dot line), MBP-SpoIVB protein (gray dash line) and MBP-MOC1 protein […]
at 430 nm. Addition of rutin (55 μМ) to these proteins (MBP-PNGase in black solid line, MBP-SpoIVB in black dash line and MBP-MOC1 in black dot line) gave the signals almost identical to rutin itself (gray solid), which has a maximum fluorescence at 550 nm.
(1 picture or pasted object on this page, not shown here)

murine proteins (mPDI) = murine proteins (mPDI) (Mus musculus, UniProt P09103); test: Fluorescence-based direct binding assay, murine proteins as a group; details: murine MBP-mPDI proteins, read-out: binding affinities of murine proteins (IC50)
Chain of murine proteins (mPDI) (P09103 236-369): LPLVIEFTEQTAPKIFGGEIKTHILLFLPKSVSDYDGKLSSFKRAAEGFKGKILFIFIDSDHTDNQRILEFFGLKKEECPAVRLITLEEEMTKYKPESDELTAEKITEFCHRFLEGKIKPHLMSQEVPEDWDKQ
Method: 2. Binding affinity (IC50) of rutin to human or murine MBP-fused PDI proteins The MBP-fused PDI proteins (18 μМ) were incubated with a gradient of 10 rutin’s concentrations differed by 2- or 3-fold and 3 repetitions in 384-well black plate at room temperature for 30 min before measurements. The total assay volume was filled to 100 μL using the assay buffer (pH 7.4) contains 150 mM NaCl, 20 mM Tris, 1 mM EDTA, 1 mM β-ME and 5% glycerin. The fluorescence emission spectrum of the mixture were measured with the excitation at 430 nm and the emission at 530 nm at room temperature on a BioTek Synergy microplate reader with a sensitivity of 100. The data were analyzed by GraphPad Prism (Fig. S3).

Water solubility = format: physicochemical
ERp5 = system: ERp5; parameters: method as in PMID 22565308; details: cited from earlier work
murine MBP-mPDI-b′xa′ = target: T7, murine MBP-mPDI-b′xa′ (Mus musculus, UniProt P09103); test: Insulin reduction assay; format: biochemical; details: rutin 100 μM, last read (100 min); MBP-mPDI-b′xa′ alone 0.832
T7 construct: MBP-mPDI-b′xa′ (236–477); His-tag; made in house; host or cells: E. coli BL21 (DE3)
T7 sequence (P09103 236-477): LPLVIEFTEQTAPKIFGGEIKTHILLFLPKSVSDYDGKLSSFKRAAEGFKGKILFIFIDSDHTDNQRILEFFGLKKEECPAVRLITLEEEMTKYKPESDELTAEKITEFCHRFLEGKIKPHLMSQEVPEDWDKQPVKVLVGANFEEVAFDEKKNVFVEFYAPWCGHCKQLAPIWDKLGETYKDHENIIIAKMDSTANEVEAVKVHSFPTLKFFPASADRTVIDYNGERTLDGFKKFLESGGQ
Method: as §1

full-length human PDI = full-length human PDI (Homo sapiens, UniProt P07237); test: Insulin reduction assay; format: biochemical; details: compound 100 μM, 1.5 μM protein, last read (100 min); PDI alone 1.125
Chain of full-length human PDI (P07237 18-508): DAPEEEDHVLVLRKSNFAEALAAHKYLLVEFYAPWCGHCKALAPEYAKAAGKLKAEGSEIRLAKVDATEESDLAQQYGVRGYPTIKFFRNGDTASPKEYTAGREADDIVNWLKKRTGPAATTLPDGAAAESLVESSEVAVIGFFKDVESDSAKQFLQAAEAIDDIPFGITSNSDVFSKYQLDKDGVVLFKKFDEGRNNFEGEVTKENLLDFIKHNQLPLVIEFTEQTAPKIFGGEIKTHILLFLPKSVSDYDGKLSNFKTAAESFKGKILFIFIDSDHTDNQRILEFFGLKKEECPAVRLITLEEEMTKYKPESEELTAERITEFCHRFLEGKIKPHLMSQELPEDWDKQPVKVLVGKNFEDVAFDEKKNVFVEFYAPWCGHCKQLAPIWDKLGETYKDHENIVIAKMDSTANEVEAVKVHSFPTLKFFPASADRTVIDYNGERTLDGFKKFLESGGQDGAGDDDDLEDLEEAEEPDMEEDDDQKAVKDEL
Method: as §1

ERp57 = system: ERp57; parameters: method as in PMID 22565308; details: cited from earlier work

In the case of `C[C@@H]1O[C@@H](OC[C@H]2O[C@@H](Oc3c(-c4ccc(O)c(O)c4)oc4cc(O)cc(O)c4c3=O)[C@H](O)[C@@H](O)[C@@H]2O)[C@H](O)[C@H](O)[C@H]1O` [rutin], the inhibition of thioredoxin (thioredoxin) is given as “did not inhibit”, the “turbidity (OD650), raw kinetic read at 1:40:32” value (from here on “turbidity (OD650)”) (wt MBP-PDI-b′xa′; compound 100 μM, 1.5 μM protein, last read (100 min), WT alone 0.829) is given as 0.585 and the inhibition at 100 µM (wt MBP-PDI-b′xa′; rutin 100 μM, increase of turbidity (OD650) at 100 min, wt, read-out: Inhibitory efficiency (%)) is given as 100%. The inhibition at 100 µM (MBP-PDI-b′xa′ K328E; increase of turbidity (OD650) at 100 min, K328E, read-out: Inhibitory efficiency (%)) was 99%, the “turbidity (OD650)” value (MBP-PDI-b′xa′ K328E; last read (100 min), K328E alone 0.777) was 0.4 and the inhibition at 100 µM (MBP-PDI-b′xa′ E359K; increase of turbidity (OD650) at 100 min, E359K, read-out: Inhibitory efficiency (%)) was 88.8%. For the same compound, the “turbidity (OD650)” value (MBP-PDI-b′xa′ E359K; last read (100 min), E359K alone 0.698) was 0.4, the inhibition at 100 µM (MBP-PDI-b′xa′ E359A; increase of turbidity (OD650) at 100 min, E359A, read-out: Inhibitory efficiency (%)) was 86% and the “turbidity (OD650)” value (MBP-PDI-b′xa′ E359A; last read (100 min), E359A alone 0.711) was 0.416. The inhibition at 100 µM (MBP-PDI-b′xa′ H354A; increase of turbidity (OD650) at 100 min, H354A, read-out: Inhibitory efficiency (%)) was 82.9%, the “turbidity (OD650)” value (MBP-PDI-b′xa′ H354A; last read (100 min), H354A alone 0.585) was 0.35 and the “decrease of inhibitory efficiency compared with wt MBP-PDI-b′xa′” value (MBP-PDI-b′xa′ L355R; L355R) was “modest decrease”. The inhibition at 100 µM (MBP-PDI-b′xa′ L355R; increase of turbidity (OD650) at 100 min, L355R, read-out: Inhibitory efficiency (%)) was 98.4%, the “turbidity (OD650)” value (MBP-PDI-b′xa′ L355R; last read (100 min), L355R alone 0.819) was 0.424 and the “binding to MBP” value [1] was “does not bind”. The IC50 (murine proteins (mPDI)) was about 30 µM, the solubility (Water solubility) was about 200 µM (≈ 122 µg/mL) and the “inhibition of ERp5” value (ERp5) was “did not inhibit”. The “turbidity (OD650)” value (murine MBP-mPDI-b′xa′) was 0.583, the “turbidity (OD650)” value (full-length human PDI) was 0.924 and the “inhibition of ERp57” value (ERp57) was “did not inhibit”.
